Test results reported in PubChem BioAssay (NCI).
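Tested at 5 concentrations; 48 h exposure; 96-well plates; endpoints linearly interpolated, else capped at highest concentration. Here, GI50 denotes the concentration required for 50% inhibition of growth. TGI: total growth inhibition.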

What was measured:
Experiment in all cases: NCI tumour cell line growth inhibition, 48 h
UO-31 renal = test system: UO-31 renal
ACHN renal = test system: ACHN renal
SF-295 CNS = test system: SF-295 CNS
SN12C renal = test system: SN12C renal
KM12 colon = test system: KM12 colon
CAKI-1 renal = test system: CAKI-1 renal
NCI-H522 lung = test system: NCI-H522 lung
MDA-MB-435 = test system: MDA-MB-435
PC-3 prostate = test system: PC-3 prostate
MCF7 breast = test system: MCF7 breast

| Compound | TGI (UO-31 renal) [µM] | TGI (ACHN renal) [µM] | TGI (SF-295 CNS) [µM] | TGI (SN12C renal) [µM] | TGI (KM12 colon) [µM] | TGI (CAKI-1 renal) [µM] | GI50 (UO-31 renal) [µM] | GI50 (ACHN renal) [µM] | GI50 (NCI-H522 lung) [µM] | TGI (NCI-H522 lung) [µM] | GI50 (SF-295 CNS) [µM] | GI50 (SN12C renal) [µM] | GI50 (KM12 colon) [µM] | GI50 (CAKI-1 renal) [µM] | GI50 (MDA-MB-435) [µM] | TGI (MDA-MB-435) [µM] | GI50 (PC-3 prostate) [µM] | TGI (PC-3 prostate) [µM] | GI50 (MCF7 breast) [µM] | TGI (MCF7 breast) [µM] |
| --- | --- | --- | --- | --- | --- | --- | --- | --- | --- | --- | --- | --- | --- | --- | --- | --- | --- | --- | --- | --- |
| COC(=O)/C(C)=C(/CCC1(C)OCCO1)O[Si](C)(C)C | > 100 | > 100 | > 100 | > 100 | > 100 | > 100 | – | – | – | – | – | – | – | – | – | – | – | – | – | – |
| CCC[CH2][Sn]1([CH2]CCC)[O]C(=O)c2cccnc2[O]1 | 19.9 | 5.21 | 10.4 | 8.79 | 17.6 | 3.93 | 7.32 | 2.14 | 0.476 | 1.67 | 3.12 | 2.58 | 4.6 | 0.74 | – | – | – | – | – | – |
| CCc1cc(C(=O)OC)cn1C(=N)c1ccc(Cl)cc1 | > 100 | > 100 | > 100 | > 100 | > 100 | > 100 | – | – | – | – | – | – | – | – | – | – | – | – | – | – |
| Cc1cc(=O)n(-c2ccccc2C)c(C)n1 | > 100 | > 100 | > 100 | > 100 | > 100 | > 100 | – | – | – | > 100 | – | – | – | – | – | – | – | – | – | – |
| COc1cc([N+](=O)[O-])c(OC)cc1-c1nc2sc(Cl)cn2c1/C(N)=N/C(=N)N | > 61.8 | > 100 | 36.7 | 4.29 | 9.16 | > 100 | 26.2 | > 56.9 | 2.35 | 5.49 | 9.94 | 1.91 | 2.75 | 39 | 1.9 | 4.64 | 3.22 | 13 | – | – |
| COc1cc2c(c(OC)c1OC)-c1ccc(SC)c(=O)cc1C(CO)C2 (stereo not given) | > 100 | > 100 | > 100 | > 100 | 0.079 | > 100 | < 0.01 | < 0.01 | – | 0.271 | < 0.01 | < 0.01 | < 0.01 | < 0.01 | – | – | – | – | – | – |
| Cc1ccc2nc(NC(=O)C(=O)C(C#N)c3nc4ccccc4s3)sc2c1 (stereo not given) | > 100 | > 100 | > 100 | > 100 | > 100 | 94.3 | – | – | – | > 100 | – | – | – | – | – | – | – | – | – | – |
| COc1cnc2c(c1)C(=O)c1c-2n(CCCn2ccnc2)c(=O)c2cc(F)ccc12 | 0.147 | – | 0.352 | > 100 | 1.57 | – | < 0.01 | – | < 0.01 | 0.169 | < 0.01 | < 0.01 | 0.0589 | – | 0.121 | 0.832 | 0.0576 | > 100 | – | – |
| CCS(CC)(CC)CC1CCCC2=CCC(P(=O)(c3ccccc3)c3ccccc3)CC21 (stereo not given) | 20.3 | 22.4 | 16.3 | 26.3 | 30.6 | 24.4 | – | – | – | 25.5 | – | – | – | – | – | – | – | – | – | – |
| Cc1ccc(S(=O)(=O)OC2CSS(=O)CC2OS(=O)(=O)c2ccc(C)cc2)cc1 (stereo not given) | 33 | 31.3 | 29.2 | 28.5 | 31.3 | 25.7 | – | – | – | 22.6 | – | – | – | – | – | – | – | – | – | – |
| OC(c1ccccc1)(c1ccccc1)c1ccncc1 | > 100 | > 100 | > 100 | > 100 | > 100 | > 100 | – | – | – | > 100 | – | – | – | – | – | – | – | – | – | – |
| O=C(O)C(SC(=S)c1ccc(C(=S)SC(C(=O)O)c2ccccc2)cc1)c1ccccc1 (stereo not given) | > 100 | > 100 | > 100 | > 100 | > 100 | – | – | – | – | – | – | – | – | – | – | – | – | – | – | – |
| Clc1ccc(C2SCc3nc4ccccc4n32)c(Cl)c1 (stereo not given) | 24.9 | 28.7 | 21.1 | 28.1 | 29.4 | – | – | – | – | 29.9 | – | – | – | – | – | – | – | – | – | – |
| CN(CCCn1c2c(c3ccccc3c1=O)C(=O)c1ccccc1-2)CCCn1c2c(c3ccccc3c1=O)C(=O)c1ccccc1-2 | 6.26 | – | 9.5 | – | 1.05 | 24.8 | 1.42 | – | – | > 100 | 0.122 | – | 0.15 | 2 | 1.56 | 17.8 | 0.29 | – | – | – |
| COc1cc(NC(C)CCCNC2CN3CCC2CC3)c2ncccc2c1 (stereo not given) | 32.6 | 29.3 | 27.7 | 29.4 | 29.1 | 38.9 | 13.7 | 14.7 | – | – | 11.6 | 14.1 | 14.6 | 13.4 | 8.71 | 22 | 12.5 | 35.1 | 1.64 | 3.58 |
| O=C(O)C(/C=C/c1ccccc1)c1ccccc1 (stereo not given) | > 100 | > 100 | > 100 | > 100 | – | – | – | – | – | > 100 | – | – | – | – | – | – | – | > 100 | – | > 100 |
| COc1cc(/C=C2/C(=O)N(C(=O)OCC(C)C)C(Cc3cc(OC)c(OC)c(C)c3OC)C(=O)N2Cc2ccccc2)c(OC)c(C)c1OC (stereo not given) | > 100 | > 100 | > 100 | > 100 | > 100 | > 100 | – | – | – | > 100 | – | – | – | – | – | – | – | – | – | – |

| Compound | TGI (UO-31 renal) [µM] | TGI (ACHN renal) [µM] | TGI (SF-295 CNS) [µM] | TGI (SN12C renal) [µM] | TGI (KM12 colon) [µM] | TGI (CAKI-1 renal) [µM] | GI50 (UO-31 renal) [µM] | GI50 (ACHN renal) [µM] | GI50 (NCI-H522 lung) [µM] | TGI (NCI-H522 lung) [µM] | GI50 (SF-295 CNS) [µM] | GI50 (SN12C renal) [µM] | GI50 (KM12 colon) [µM] | GI50 (CAKI-1 renal) [µM] | GI50 (MDA-MB-435) [µM] | TGI (MDA-MB-435) [µM] | GI50 (PC-3 prostate) [µM] | TGI (PC-3 prostate) [µM] | GI50 (MCF7 breast) [µM] | TGI (MCF7 breast) [µM] |
| --- | --- | --- | --- | --- | --- | --- | --- | --- | --- | --- | --- | --- | --- | --- | --- | --- | --- | --- | --- | --- |
| C=C1C(=O)O[C@H]2[C@H]1CC/C(COC(=O)NCc1cn(C)c3ccccc13)=C\CC[C@@]1(C)O[C@@H]21 | 2.62 | 1.81 | 13.9 | 3.01 | 7.67 | 2.64 | 1.34 | 0.533 | 1.02 | 2.44 | 3.27 | 1.21 | 2.88 | 1.32 | 1.28 | 3.05 | 1.76 | 4.79 | – | – |
| CC(C)C1CC[C@@H](C)C[C@@]1(O)CC(N)=O (stereo not given in full) | > 100 | > 100 | > 100 | > 100 | > 100 | > 100 | – | – | – | > 100 | – | – | – | – | – | – | – | – | – | – |
| COc1ccc(Br)c(N/N=C2\CCCNC2=O)c1 | > 100 | > 100 | > 100 | > 100 | > 100 | 91.8 | – | – | – | > 100 | – | – | – | – | – | – | – | – | – | – |
| COc1ccc2n[se]nc2c1 | > 100 | > 100 | > 100 | > 100 | > 100 | > 100 | – | – | – | > 100 | – | – | – | – | – | – | – | – | – | – |
| COC(=O)C1(C)CCC(c2ccc(C)cc2)=C(CC(=O)O)C1 (stereo not given) | – | > 100 | > 100 | > 100 | – | – | – | – | – | > 100 | – | – | – | – | – | > 100 | – | > 100 | – | > 100 |
| O=C([CH-]C(=O)c1ccccc1)c1ccccc1.O=C([CH-]C(=O)c1ccccc1)c1ccccc1.[La+3].[OH-].[OH3+] | 31.6 | > 100 | – | 68 | – | 56.8 | 6.62 | 19.6 | 3.29 | 19.8 | – | 18.4 | – | 17.4 | – | – | – | – | – | – |
| COC1CC(OS(=O)(=O)c2ccc([N+](=O)[O-])cc2)C(OC(=O)c2ccccc2)C(C)O1 (stereo not given) | – | > 100 | > 100 | > 100 | > 100 | > 100 | – | – | – | > 100 | – | – | – | – | – | – | – | – | – | – |
| CN(C)CC/C(=N\Nc1ccc([N+](=O)[O-])cc1)c1ccccc1 | 6.02 | 6.81 | 23.6 | 23.8 | 22.3 | – | – | – | – | 29.1 | – | – | – | – | – | – | – | – | – | – |
| CCOc1ccc2c(c1)[n+]([O-])c(-c1ccc(Cl)cc1)c(N)[n+]2[O-] | > 100 | > 100 | > 100 | > 100 | > 100 | > 100 | – | – | – | > 100 | – | – | – | – | – | – | – | – | – | – |
| COc1ccc(-c2cc(=O)[nH]c3c(OC)c4ccccc4c(OC)c23)cc1 | > 100 | > 100 | – | > 100 | > 100 | > 100 | 0.725 | 0.663 | 0.284 | 3.26 | 0.272 | 0.612 | 0.323 | 0.376 | – | – | 0.382 | > 100 | 0.357 | > 100 |
| CN1C(=Nc2ccccc2)SC1=Nc1ccccc1 | > 100 | > 100 | > 100 | – | > 100 | – | – | – | – | 41.3 | – | – | – | – | – | – | – | – | – | – |
| Oc1c(C(Nc2cccc3cccnc23)c2ccccc2)ccc2cccnc12 (stereo not given) | > 100 | > 100 | > 100 | > 100 | > 100 | > 100 | – | – | – | 73.8 | – | – | – | – | – | – | – | – | – | – |
| COc1ccc2nc3cccc([N+](=O)[O-])c3c(NCCCCCC(=O)O)c2c1 | 0.484 | 0.582 | 4.55 | 1.16 | 0.22 | 0.284 | 0.161 | 0.0562 | 0.0363 | 0.101 | 0.447 | 0.131 | 0.0262 | 0.0365 | – | – | – | 1.36 | 0.0174 | 0.596 |
| COc1ccc(C2=CC(c3ccc4c(c3)OCO4)c3c(c4ccccc4oc3=O)O2)cc1OC (stereo not given) | > 100 | > 100 | > 100 | > 100 | > 100 | > 100 | – | – | – | – | – | – | – | – | – | 9.25 | – | > 100 | – | > 100 |
| CCOc1ccccc1N1C(=O)C(=O)C(c2nc3ccccc3o2)C(=O)C1=O | > 100 | > 100 | > 100 | > 100 | – | > 100 | – | – | – | > 100 | – | – | – | – | – | – | – | – | – | – |
| CP1(=O)CCCCC1 | > 100 | > 100 | > 100 | > 100 | > 100 | > 100 | – | – | – | – | – | – | – | – | – | – | – | – | – | – |
| O=[N+]([O-])c1cc(C(F)(F)F)cc([N+](=O)[O-])c1CCl | 20.6 | 27.9 | 10.8 | 3.08 | 4.92 | 7.37 | – | – | – | 0.812 | – | – | – | – | – | – | – | – | – | – |
